Laboratory results taken from the CheMixHub ionic liquid set.

Assay: xn = mol fraction of the nth substance listed
Details: 100 kPa

CCCCCCCC[n+]1ccccc1.[Br-] + CC(C)C[C@H](N)C(=O)O + O
Details | electrical conductivity [S/m]
288.15 K, x2 = 0.0008942, x1 = 0.006691 | 1.27
288.15 K, x2 = 0.0008943, x1 = 0.006585 | 1.26
288.15 K, x2 = 0.0008945, x1 = 0.006321 | 1.23
288.15 K, x2 = 0.0008948, x1 = 0.005952 | 1.19
288.15 K, x2 = 0.0008952, x1 = 0.005558 | 1.15
288.15 K, x2 = 0.0008956, x1 = 0.005126 | 1.11
288.15 K, x2 = 0.000896, x1 = 0.004648 | 1.05
288.15 K, x2 = 0.0008965, x1 = 0.00414 | 0.989
288.15 K, x2 = 0.000897, x1 = 0.003579 | 0.891
288.15 K, x2 = 0.0008975, x1 = 0.002951 | 0.778
288.15 K, x2 = 0.0008982, x1 = 0.002257 | 0.635
288.15 K, x2 = 0.0008986, x1 = 0.001784 | 0.529
288.15 K, x2 = 0.000899, x1 = 0.001328 | 0.417
288.15 K, x2 = 0.0008994, x1 = 0.0008528 | 0.298
288.15 K, x2 = 0.001786, x1 = 0.007009 | 1.29
288.15 K, x2 = 0.001787, x1 = 0.006296 | 1.21
288.15 K, x2 = 0.001787, x1 = 0.006626 | 1.25
288.15 K, x2 = 0.001788, x1 = 0.005936 | 1.17
288.15 K, x2 = 0.001789, x1 = 0.005553 | 1.12
288.15 K, x2 = 0.00179, x1 = 0.004654 | 1.02
288.15 K, x2 = 0.00179, x1 = 0.005124 | 1.08
288.15 K, x2 = 0.001791, x1 = 0.004138 | 0.963
288.15 K, x2 = 0.001792, x1 = 0.00359 | 0.869
288.15 K, x2 = 0.001793, x1 = 0.002944 | 0.753
288.15 K, x2 = 0.001795, x1 = 0.001946 | 0.545
288.15 K, x2 = 0.001795, x1 = 0.002309 | 0.625
288.15 K, x2 = 0.001796, x1 = 0.00149 | 0.443
288.15 K, x2 = 0.001797, x1 = 0.0009613 | 0.319
293.15 K, x2 = 0.0008942, x1 = 0.006678 | 1.44
293.15 K, x2 = 0.0008943, x1 = 0.006573 | 1.42
293.15 K, x2 = 0.0008945, x1 = 0.00631 | 1.39
293.15 K, x2 = 0.0008948, x1 = 0.005941 | 1.35
293.15 K, x2 = 0.0008952, x1 = 0.005547 | 1.3
293.15 K, x2 = 0.0008956, x1 = 0.005117 | 1.26
293.15 K, x2 = 0.000896, x1 = 0.004639 | 1.19
293.15 K, x2 = 0.0008965, x1 = 0.004133 | 1.12
293.15 K, x2 = 0.000897, x1 = 0.003572 | 1.01
293.15 K, x2 = 0.0008975, x1 = 0.002945 | 0.879
293.15 K, x2 = 0.0008982, x1 = 0.002253 | 0.718
293.15 K, x2 = 0.0008986, x1 = 0.001782 | 0.597
293.15 K, x2 = 0.000899, x1 = 0.001327 | 0.47
293.15 K, x2 = 0.0008994, x1 = 0.000851 | 0.333
293.15 K, x2 = 0.001786, x1 = 0.006996 | 1.47
293.15 K, x2 = 0.001787, x1 = 0.006286 | 1.38
293.15 K, x2 = 0.001787, x1 = 0.006613 | 1.43
293.15 K, x2 = 0.001788, x1 = 0.005926 | 1.33
293.15 K, x2 = 0.001789, x1 = 0.005542 | 1.28
293.15 K, x2 = 0.00179, x1 = 0.004645 | 1.16
293.15 K, x2 = 0.00179, x1 = 0.005113 | 1.23
293.15 K, x2 = 0.001791, x1 = 0.004131 | 1.09
293.15 K, x2 = 0.001792, x1 = 0.003584 | 0.986
293.15 K, x2 = 0.001793, x1 = 0.002938 | 0.852
293.15 K, x2 = 0.001795, x1 = 0.001937 | 0.616
293.15 K, x2 = 0.001795, x1 = 0.002304 | 0.706
293.15 K, x2 = 0.001796, x1 = 0.001487 | 0.497
293.15 K, x2 = 0.001797, x1 = 0.0009613 | 0.359
298.15 K, x2 = 0.0008942, x1 = 0.006669 | 1.62
298.15 K, x2 = 0.0008943, x1 = 0.006564 | 1.6
298.15 K, x2 = 0.0008945, x1 = 0.006301 | 1.57
298.15 K, x2 = 0.0008948, x1 = 0.005934 | 1.52
298.15 K, x2 = 0.0008952, x1 = 0.00554 | 1.47
298.15 K, x2 = 0.0008956, x1 = 0.00511 | 1.41
298.15 K, x2 = 0.000896, x1 = 0.004634 | 1.34
298.15 K, x2 = 0.0008965, x1 = 0.004127 | 1.25
298.15 K, x2 = 0.000897, x1 = 0.003568 | 1.13
298.15 K, x2 = 0.0008975, x1 = 0.002942 | 0.987
298.15 K, x2 = 0.0008982, x1 = 0.002249 | 0.803
298.15 K, x2 = 0.0008986, x1 = 0.00178 | 0.668
298.15 K, x2 = 0.000899, x1 = 0.001325 | 0.525
298.15 K, x2 = 0.0008994, x1 = 0.000851 | 0.369
298.15 K, x2 = 0.001786, x1 = 0.006987 | 1.66
298.15 K, x2 = 0.001787, x1 = 0.006277 | 1.56
298.15 K, x2 = 0.001787, x1 = 0.006604 | 1.61
298.15 K, x2 = 0.001788, x1 = 0.005918 | 1.51
298.15 K, x2 = 0.001789, x1 = 0.005535 | 1.45
298.15 K, x2 = 0.00179, x1 = 0.00464 | 1.31
298.15 K, x2 = 0.00179, x1 = 0.005107 | 1.38
298.15 K, x2 = 0.001791, x1 = 0.004127 | 1.23
298.15 K, x2 = 0.001792, x1 = 0.003579 | 1.11
298.15 K, x2 = 0.001793, x1 = 0.002934 | 0.956
298.15 K, x2 = 0.001795, x1 = 0.001935 | 0.69
298.15 K, x2 = 0.001795, x1 = 0.002302 | 0.791
298.15 K, x2 = 0.001796, x1 = 0.001485 | 0.558
298.15 K, x2 = 0.001797, x1 = 0.0009595 | 0.394
303.15 K, x2 = 0.0008942, x1 = 0.006659 | 1.8
303.15 K, x2 = 0.0008943, x1 = 0.006555 | 1.79
303.15 K, x2 = 0.0008945, x1 = 0.006292 | 1.76
303.15 K, x2 = 0.0008949, x1 = 0.005925 | 1.71
303.15 K, x2 = 0.0008952, x1 = 0.005533 | 1.65
303.15 K, x2 = 0.0008956, x1 = 0.005102 | 1.58
303.15 K, x2 = 0.000896, x1 = 0.004627 | 1.5
303.15 K, x2 = 0.0008965, x1 = 0.00412 | 1.4
303.15 K, x2 = 0.000897, x1 = 0.003563 | 1.26
303.15 K, x2 = 0.0008975, x1 = 0.002936 | 1.1
303.15 K, x2 = 0.0008982, x1 = 0.002246 | 0.893
303.15 K, x2 = 0.0008986, x1 = 0.001776 | 0.741
303.15 K, x2 = 0.000899, x1 = 0.001323 | 0.582
303.15 K, x2 = 0.0008994, x1 = 0.0008492 | 0.411
303.15 K, x2 = 0.001786, x1 = 0.006976 | 1.88
303.15 K, x2 = 0.001787, x1 = 0.006268 | 1.76
303.15 K, x2 = 0.001787, x1 = 0.006595 | 1.81
303.15 K, x2 = 0.001788, x1 = 0.005909 | 1.69
303.15 K, x2 = 0.001789, x1 = 0.005527 | 1.63
303.15 K, x2 = 0.00179, x1 = 0.004633 | 1.47
303.15 K, x2 = 0.00179, x1 = 0.0051 | 1.56
303.15 K, x2 = 0.001791, x1 = 0.00412 | 1.37
303.15 K, x2 = 0.001792, x1 = 0.003575 | 1.24
303.15 K, x2 = 0.001793, x1 = 0.002931 | 1.07
303.15 K, x2 = 0.001795, x1 = 0.001932 | 0.767
303.15 K, x2 = 0.001795, x1 = 0.002298 | 0.88
303.15 K, x2 = 0.001796, x1 = 0.001483 | 0.619
303.15 K, x2 = 0.001797, x1 = 0.0009576 | 0.441
308.15 K, x2 = 0.0008942, x1 = 0.00665 | 2.05
308.15 K, x2 = 0.0008943, x1 = 0.006544 | 2.03
308.15 K, x2 = 0.0008945, x1 = 0.006283 | 1.98
308.15 K, x2 = 0.0008949, x1 = 0.005916 | 1.91
308.15 K, x2 = 0.0008952, x1 = 0.005524 | 1.83
308.15 K, x2 = 0.0008956, x1 = 0.005093 | 1.76
308.15 K, x2 = 0.000896, x1 = 0.00462 | 1.66
308.15 K, x2 = 0.0008965, x1 = 0.004115 | 1.53
308.15 K, x2 = 0.000897, x1 = 0.003557 | 1.39
308.15 K, x2 = 0.0008975, x1 = 0.002933 | 1.2
308.15 K, x2 = 0.0008982, x1 = 0.002244 | 0.971
308.15 K, x2 = 0.0008986, x1 = 0.001775 | 0.809
308.15 K, x2 = 0.000899, x1 = 0.001321 | 0.643
308.15 K, x2 = 0.0008994, x1 = 0.0008474 | 0.461
308.15 K, x2 = 0.001786, x1 = 0.006965 | 2.11
308.15 K, x2 = 0.001787, x1 = 0.006586 | 2.04
308.15 K, x2 = 0.001788, x1 = 0.0059 | 1.9
308.15 K, x2 = 0.001788, x1 = 0.006259 | 1.97
308.15 K, x2 = 0.001789, x1 = 0.005518 | 1.82
308.15 K, x2 = 0.00179, x1 = 0.004626 | 1.64
308.15 K, x2 = 0.00179, x1 = 0.005091 | 1.73
308.15 K, x2 = 0.001791, x1 = 0.004114 | 1.51
308.15 K, x2 = 0.001792, x1 = 0.003568 | 1.37
308.15 K, x2 = 0.001793, x1 = 0.002925 | 1.17
308.15 K, x2 = 0.001795, x1 = 0.00193 | 0.836
308.15 K, x2 = 0.001795, x1 = 0.002295 | 0.962
308.15 K, x2 = 0.001796, x1 = 0.001481 | 0.683
308.15 K, x2 = 0.001797, x1 = 0.0009558 | 0.483
